Measurements reported in US20260021159A1, “STABLE PEPTIDE COMPOSITIONS AND METHODS OF USE THEREOF FOR TREATMENT OF MODERATE/SEVERE DRY EYE-RELATED OCULAR SYMPTOMS” (TearSolutions, Inc., priority 2022, published 2026).
“Also recorded” adds a separate entry of the source.

Assays:
Format in all cases: in vivo, human
[1] = tested on: subjects with ocular surface disease associated with Primary Sjögren's Syndrome; assay: Lissamine green conjunctival staining (LGCS, NEI scale) in Lacripep clinical study
Description: (§1) The primary objective of this study was to evaluate the safety and tolerability of 22 and 44 μM Lacripep™ ophthalmic solution versus placebo (vehicle) administered three times daily for 28 days in subjects with a history of ocular surface disease associated with Primary Sjögren's Syndrome, including subjects with mild dry eye symptoms. Additionally, many dry eye signs and symptoms were assessed.
(§2) This was a multi-center, randomized, placebo-controlled, double-masked, parallel-group study conducted at 35 sites in the United States, and approved by local institutional review boards. Written informed consent was obtained from all subjects after review of risks and benefits of participation. The study was conducted in accordance with the Health Insurance Portability and Accountability Act of 1996 and Declaration of Helsinki of 1996 and registered at ClinicalTrials.gov: NCT 03226444.
(§3) The study duration was 56 days, including a 14-day run-in period, a 28-day active treatment period, and 14-day follow-up period (wash-out) (see FIG. 2). Measurements were collected at five scheduled visits.
(§4) Randomization and Treatment: At Visit 2 (Baseline/Randomization) eligibility was confirmed. All criteria were met in the same study eye. […] Eligible subjects were randomly assigned to one of the three treatment groups: one of two Lacripep™ ophthalmic solution strengths (22 μM or 44 μM) or placebo (vehicle).
(§5) One drop of investigational product was administered three times a day (TID) to both eyes for 28 days. At Visit 3 (Week 2) and Visit 4 (Week 4) efficacy and safety evaluations were performed. Subjects who discontinued before Visit 4 underwent Visit 4 evaluations (Early Termination).
(§6) Efficacy: All efficacy assessments were performed in both eyes, and by the same person if possible. […] Lissamine green conjunctival staining (LGCS) was assessed in 6 regions on a 0 to 3 scale (total 0 to 18). All sites were trained and tested on NEI scoring methodology.
(§7) The change from Baseline in CFS to Day 14 and to post treatment follow-up (Day 42) were additional secondary measurements. Other secondary measurements included changes from baseline to Day 14 and Day 28 in the LGCS scores, TFBUT, and Schirmer tests. Secondary symptom measurements included changes from baseline to Day 14 and Day 28 in the SANDE and each of the Individual Symptom Assessments.
Post-Hoc Efficacy Analysis: Post-hoc, all primary and secondary endpoints were assessed for treatment effect controlling for baseline Eye Dryness Score (EDS) using analysis of covariance (ANCOVA). All ANCOVA models were fit using the Proc Mixed procedure in SAS. Post-hoc analysis was also performed using all observed data in the ITT set, without imputation. […] Subgroups were then evaluated according to baseline EDS.

[2] = tested on: subjects with ocular surface disease associated with Primary Sjögren's Syndrome; assay: Burning/Stinging individual symptom assessment (VAS) in Lacripep clinical study
Description: as §1, §2, §3, §4
One drop of investigational product was administered three times a day (TID) to both eyes for 28 days. […]
Tear film break-up time (TBUT) was measured in seconds. The Symptom Assessment in Dry Eye (SANDE) inventory version 1 and version 2 measured patient-rated symptom severity and frequency using a visual-analogue scale. The Individual Symptom Assessments (instantaneous and Reflective) measured patient-reported symptoms on a visual-analogue scale (VAS). […]
Post-Hoc Efficacy Analysis: Post-hoc, all primary and secondary endpoints were assessed for treatment effect controlling for baseline Eye Dryness Score (EDS) using analysis of covariance (ANCOVA). […] Subgroups were then evaluated according to baseline EDS.

[3] = tested on: subjects with ocular surface disease associated with Primary Sjögren's Syndrome; assay: Corneal fluorescein staining (CFS, NEI scale) in Lacripep clinical study NCT 03226444
Description: as §1, §2, §3
Screening and Eligibility: At Visit 1 (Screening) informed consent was obtained from subjects and eligibility was determined requiring documentation of Primary Sjögren's Syndrome per the American-European Consensus Group Sjögren's Syndrome Criteria. Subjects were at least 18 years of age with a history of dry eye-related symptoms and use of eye-wetting agents within the past 120 days. Major inclusion criteria at the screening and subsequent baseline visits included: • 1. CFS total score >4 and <15 in the National Eye Institute Industry Workshop (NEI) scale (Protocol Appendix 6) • 2. Symptom Severity score of ≥40 using the Symptom Assessment in Dry Eye (SANDE) questionnaire • 3. Anesthetized Schirmer test score […] • 4. LGCS total score ≥5 using the NEI scale
as §4, §5, §6
The primary efficacy measurement was mean change from Baseline to Day 28 in CFS total score (NEI/Industry Workshop 0-15 scale, 0-3 scale in each of 5 regions) in the study eye. The key secondary efficacy measurement was mean change from Baseline to Day 28 in Eye Dryness Score (VAS from 0 to 100 mm) from Individual Symptom Assessments.
as §7, with “Assessments. […]” for “Assessments.”

[4] = 22 μM TID, day 14, prespecified analysis

Ac-Lys-Gln-Phe-Ile-Glu-Asn-Gly-Ser-Glu-Phe-Ala-Gln-Lys-Leu-Leu-Lys-Lys-Phe-Ser-NH2 (Ac-KQFIENGSEFAQKLLKKFS-NH2) [Lacripep™, synthetic 19 amino acid peptide fragment of lacritin]
Improvement in change from baseline LGCS total score vs. placebo ([1]; 22 μM TID, day 14, subset baseline EDS≥60, p=0.017): 1.5 | Improvement in LGCS segment 5 vs. placebo ([1]; 22 μM TID, day 14, subset baseline EDS≥60, p=0.038): 0.4 | Improvement in LGCS segment 1 vs. placebo ([1]; 22 μM TID, day 14, subset baseline EDS≥60, p=0.049): 0.4 | Improvement in LGCS ([1]; prespecified secondary endpoint analysis): not statistically significant | Improvement from baseline in Burning/Stinging symptom (reflective VAS rating) vs. placebo [2, 4]: statistically significant | Burning/Stinging symptom vs placebo at later time points ([2]; both dose groups (22 and 44 μM), day 28 and day 42, not statistically significant): trend better than the placebo group | Burning/Stinging symptom treatment effect ([2]; both dose groups, day 28, subset baseline EDS of ≥60): positive but not significant effect | Improvement in total CFS score vs placebo ([3]; 22 μM TID, day 14, baseline EDS set, p=0.03): 1.2 | Improvement from baseline in inferior region CFS score vs. placebo [3, 4]: statistically significant | Treatment effect on inferior CFS after washout ([3]; 22 μM, day 42 post-treatment follow-up, subset baseline EDS): falling off after washout | Difference in inferior region CFS score vs. placebo ([3]; 44 μM TID (higher dose group), subset baseline EDS≥60): Positive (though not statistically significant) differences; also recorded: positive but not significant effect | Primary endpoint of CFS score at day 28 ([3]; day 28, change from baseline in CFS total score vs placebo): not met
